# Reference: patent EP3995133A1, “STABLE NANOEMULSIONS” (Fundación Tecnalia Research & Innovation, priority 2020, dated 2022)
# Where two headings read alike, the source gives them in different places.
# Experiments:
# HaCaT = details: 24 hours
# Protocol: (§1) Potential apoptosis and necrosis induction was studied in the cell lines using Annexin V conjugated with Alexa Fluor 488 (Molecular Probes) and Propidium Iodide (PI, Sigma) fluorochromes by Flow Cytometry, to measure early apoptotic event and necrosis respectively, after exposure to different concentrations of sulforaphane or sulforaphane-loaded nanoemulsion suspensions. HaCaT, and 3T3 cells were seeded in 24 well plates at a density of 100.000 cells/well. 24 hours later cells were exposed to test items for further 24 hours. After the exposure, 5 µL of the annexin V conjugates were added to each 100 µL of cell suspension replicate (minimum of 10.000 cell/100µL) and incubated at room temperature for 15 minutes. After incubation, cells were washed and submitted to flow cytometry acquisition. Immediately before acquisition, the stained cells were contrasted with PI (5 µg/ml) to detect necrotic cells and analysed by Cytomics FC500 Flow Cytometer. Three independent experiments and at least three replicates for each experimental point were carried out. Each experiment included a negative control (untreated cells). […]
# 3T3 = details: 3T3, 24 hours
# Protocol: as §1
# [1] = 6.25 mM sulforaphane (6.26 printed for the nanoemulsion)
smiles,measurement,setting,value
"C[S+]([O-])CCCCN=C=S (racemic) [Sulforaphane, D,L-Sulforaphane]",AnnexinV (percentage of positive cells),HaCaT; 3.125 mM sulforaphane,5.90±0.98%
same,AnnexinV+PI (percentage of positive cells),HaCaT; 3.125 mM sulforaphane,1.27±0.06%
same,C neg (percentage of cells),HaCaT; 3.125 mM sulforaphane,90.97±1.77%
same,PI (percentage of positive cells),HaCaT; 3.125 mM sulforaphane,1.87±0.81%
same,AnnexinV (percentage of positive cells),HaCaT; [1],7.33±1.82%
same,AnnexinV+PI (percentage of positive cells),HaCaT; [1],1.83±0.15%
same,C neg (percentage of cells),HaCaT; [1],88.50±1.65%
same,PI (percentage of positive cells),HaCaT; [1],2.33±0.61%
same,AnnexinV (percentage of positive cells),HaCaT; 12.5 mM sulforaphane,7.17±1.74%
same,AnnexinV+PI (percentage of positive cells),HaCaT; 12.5 mM sulforaphane,2.03±0.35%
same,C neg (percentage of cells),HaCaT; 12.5 mM sulforaphane,88.10±3.40%
same,PI (percentage of positive cells),HaCaT; 12.5 mM sulforaphane,2.70±0.30%
same,AnnexinV (percentage of positive cells),3T3; 3.125 mM sulforaphane,7.73±1.23%
same,AnnexinV+PI (percentage of positive cells),3T3; 3.125 mM sulforaphane,1.93±0.15%
same,C neg (percentage of cells),3T3; 3.125 mM sulforaphane,86.23±1.77%
same,PI (percentage of positive cells),3T3; 3.125 mM sulforaphane,4.10±2.38%
same,AnnexinV (percentage of positive cells),3T3; [1],7.83±1.50%
same,AnnexinV+PI (percentage of positive cells),3T3; [1],2.03±0.46%
same,C neg (percentage of cells),3T3; [1],86.97±1.68%
same,PI (percentage of positive cells),3T3; [1],3.17±0.76%
same,AnnexinV (percentage of positive cells),3T3; 12.5 mM sulforaphane,11.07±1.59%
same,AnnexinV+PI (percentage of positive cells),3T3; 12.5 mM sulforaphane,3.07±0.67%
same,C neg (percentage of cells),3T3; 12.5 mM sulforaphane,81.57±3.40%
same,PI (percentage of positive cells),3T3; 12.5 mM sulforaphane,4.30±0.54%
